Here are results for 26 compounds from patent US9938269B2, “Inhibitor compounds of phosphodiesterase type 10A” (ABBVIE INC., priority 2011, dated 2018).

Series [1] concerns the target T1, PDE10A (human) (Homo sapiens, UniProt Q9Y233).
T1 construct: purchased BPS Bioscience
Nature of the series: Measurement of PDE activity (HTRF cAMP kit), human PDE10A. The series is classed as biochemical. The settings on record: PDE enzymatic reaction, substrate 20 nM for PDE10, 60 minutes at 29 C. In a few lines:
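Recombinant human PDE10A (10–250 pM range across PDEs) with 20 nM cAMP substrate in 20 mM Tris-HCl pH 7.5, 10 mM MgCl2, 0.1% BSA, compound pre-mixed with enzyme. Ran 60 min at 29 °C. Remaining cAMP read by HTRF, converted to % of uninhibited activity, and IC50 fitted.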
(In general: TR-FRET usually uses a lanthanide donor and a delayed reading to cut background.)

The nature of series [2]: Determination of the microsomal half-life, human liver microsomes. The settings on record: human, liver microsomes, pH 7.4. In general terms: Microsomes from liver hold many membrane-bound enzymes, among them those of drug oxidation.
Experimental: The test substances were incubated in a concentration of 0.5 μM as follows:
0.5 μM test substance are preincubated together with liver microsomes from different species (from rat, human or other species) (0.25 mg of microsomal protein/10 in 0.05 M potassium phosphate buffer of pH 7.4 in microtiter plates at 37° C. for 5 min. The reaction is started by adding NADPH (1 mg/mL). After 0, 5, 10, 15, 20 and 30 min., 50 μl aliquots are removed, and the reaction is immediately stopped and cooled with the same volume of acetonitrile. The samples are frozen until analyzed. The remaining concentration of undegraded test substance is determined by MSMS. The half-life (T½) is determined from the gradient of the signal of test substance/unit time plot, it being possible to calculate the half-life of the test substance, assuming first order kinetics, from the decrease in the concentration of the compound with time. The microsomal clearance (mCl) is calculated from mCl=ln 2/T½/(content of microsomal protein in mg/ml)×1000 [ml/min/mg]
Series [3] can be described thus: Determination of the microsomal half-life, rat liver microsomes. To be noted: rat, liver microsomes, pH 7.4.

Molecules are shown by their SMILES. Where a name gives a salt, the structure may show the parent alone.

By IC50 is commonly meant the concentration that gives 50% inhibition. Higher therefore signals a need for much substance. As a reminder, the microsomal CLint is the rate of metabolic loss divided by the concentration. A low value points to slow turnover.

T1 sequence (Q9Y233 whole entry): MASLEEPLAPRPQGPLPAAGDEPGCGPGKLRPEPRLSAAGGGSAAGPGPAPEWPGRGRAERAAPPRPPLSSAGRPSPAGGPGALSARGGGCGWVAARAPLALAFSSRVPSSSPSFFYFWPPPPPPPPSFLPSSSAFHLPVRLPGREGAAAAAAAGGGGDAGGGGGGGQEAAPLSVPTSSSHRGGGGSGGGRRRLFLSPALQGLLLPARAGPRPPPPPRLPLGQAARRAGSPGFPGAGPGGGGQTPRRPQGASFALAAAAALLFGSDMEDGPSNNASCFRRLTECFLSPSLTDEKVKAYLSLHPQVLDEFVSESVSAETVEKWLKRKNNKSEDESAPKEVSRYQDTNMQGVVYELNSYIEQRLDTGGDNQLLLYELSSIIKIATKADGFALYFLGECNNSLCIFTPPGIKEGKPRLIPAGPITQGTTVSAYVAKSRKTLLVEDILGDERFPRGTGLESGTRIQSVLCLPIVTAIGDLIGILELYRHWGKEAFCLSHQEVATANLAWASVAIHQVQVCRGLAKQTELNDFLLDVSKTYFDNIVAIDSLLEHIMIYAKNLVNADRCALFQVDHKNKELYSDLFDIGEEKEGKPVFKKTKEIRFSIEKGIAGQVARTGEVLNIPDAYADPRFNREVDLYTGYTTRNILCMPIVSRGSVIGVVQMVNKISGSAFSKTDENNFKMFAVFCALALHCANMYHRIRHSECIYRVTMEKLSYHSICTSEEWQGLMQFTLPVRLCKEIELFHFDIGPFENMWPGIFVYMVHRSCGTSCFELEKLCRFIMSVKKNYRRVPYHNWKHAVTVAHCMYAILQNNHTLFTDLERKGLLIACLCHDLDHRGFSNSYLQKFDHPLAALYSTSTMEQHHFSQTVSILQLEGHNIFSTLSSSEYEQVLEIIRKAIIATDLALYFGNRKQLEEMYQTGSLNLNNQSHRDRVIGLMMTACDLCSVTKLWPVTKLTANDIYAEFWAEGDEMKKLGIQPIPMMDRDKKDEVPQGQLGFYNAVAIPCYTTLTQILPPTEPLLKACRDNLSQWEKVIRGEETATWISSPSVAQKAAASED

In turn, `O=C1c2c(-c3ccncc3F)ccnc2CN1CCc1cn2ccccc2n1` [compound 534, 4-(3-Fluoro-pyridin-4-yl)-6-(2-imidazo[1,2-a]pyridin-2-yl-ethyl)-6,7-dihydro-pyrrolo[3,4-b]pyridin-5-one] gave an IC50 in series [1] below 0.1 µM. Moreover, the microsomal CLint at 0.5 μM in series [2] and in series [3] was below 100 µL/min/mg throughout.
`COc1ccc(N2CCOCC2)c2c1CN(CCc1nc3ccccc3n1C)C2=O` [Example 371, 4-Methoxy-2-[2-(1-methyl-1H-benzoimidazol-2-yl)-ethyl]-7-morpholin-4-yl-2,3-dihydro-isoindol-1-one] registered an IC50 in series [1] below 0.1 µM. For the same compound, the figures for the microsomal CLint at 0.5 μM in series [2] and in series [3] were above 220 µL/min/mg and below 100 µL/min/mg, respectively.
On to `O=C1c2cccc(N3CCOCC3)c2CN1CCc1cn2ccccc2n1` [Example 308, 2-(2-Imidazo[1,2-a]pyridin-2-yl-ethyl)-4-morpholin-4-yl-2,3-dihydro-isoindol-1-one], for which the IC50 in series [1] fell in the range of 0.1 to 0.2 µM. For the same compound, the microsomal CLint at 0.5 μM in series [2] and in series [3] was below 100 µL/min/mg each time.
Turning to `COc1ccc(NC2COC2)c2c1CN(CCc1nc3ccccc3n1C)C2=O` [compound 411, 4-Methoxy-2-[2-(1-methyl-1H-benzoimidazol-2-yl)-ethyl]-7-(oxetan-3-ylamino)-2,3-dihydro-isoindol-1-one], the IC50 in series [1] is below 0.1 µM. In addition, the microsomal CLint at 0.5 μM in series [2] is above 220 µL/min/mg; in series [3], 100 to 220 µL/min/mg.
As for `COc1ccc(N2CCOCC2)c2c1CN(CCc1cn3ccccc3n1)C2=O` [Example 264, 2-(2-Imidazo[1,2-a]pyridin-2-yl-ethyl)-4-methoxy-7-morpholin-4-yl-2,3-dihydro-isoindol-1-one trifluoroacetate], in series [1], the IC50 was below 0.1 µM. Further, the microsomal CLint at 0.5 μM in series [2] and in series [3] was below 100 µL/min/mg in each case.
On to `CCn1c(CCN2Cc3cccc(N4CCOCC4)c3C2=O)nc2ccccc21` [Example 278, 2-[2-(1-Ethyl-1H-benzoimidazol-2-yl)-ethyl]-7-morpholin-4-yl-2,3-dihydro-isoindol-1-one], for which the IC50 in series [1] was below 0.1 µM. The microsomal CLint at 0.5 μM in series [2] and in series [3] was 100 to 220 µL/min/mg throughout.
As to `Cn1cnc2ccc(-c3cccc4c3C(=O)N(CCc3ccc5ccccc5n3)C4)cc21` [Example 8, 7-(3-Methyl-3H-benzoimidazol-5-yl)-2-(2-quinolin-2-yl-ethyl)-2,3-dihydro-isoindol-1-one trifluoroacetate], the IC50 in series [1] was 0.2 to 0.5 µM. The microsomal CLint at 0.5 μM was above 220 µL/min/mg in series [2] and 100 to 220 µL/min/mg in series [3].
Regarding `Cc1ccc(CCN2Cc3nccc(N4CCOCC4)c3C2=O)nc1C` [compound 554, 6-[2-(5,6-Dimethyl-2-pyridyl)ethyl]-4-morpholino-7H-pyrrolo[3,4-b]pyridin-5-one], in series [1], the IC50 is below 0.1 µM. Moreover, the microsomal CLint at 0.5 μM in series [2] and in series [3] was 100 to 220 µL/min/mg in each case.
In series [1], `O=C1c2c(cccc2-c2ccc(F)cc2)CN1CCc1cn2ccccc2n1` [Example 236, 7-(4-Fluoro-phenyl)-2-(2-imidazol[1,2-a]pyridin-2-yl-ethyl)-2,3-dihydro-isoindol-1-one] had an IC50 of 0.2 to 0.5 µM. The microsomal CLint at 0.5 μM in series [2] and in series [3] was 100 to 220 µL/min/mg throughout.
`COc1ccc(-c2cn[nH]c2)c2c1CN(CCc1cn3ccccc3n1)C2=O` [Example 372, 2-(2-Imidazo[1,2-a]pyridin-2-yl-ethyl)-4-methoxy-7-(1H-pyrazol-4-yl)-2,3-dihydro-isoindol-1-one] returned an IC50 in series [1] below 0.1 µM. The microsomal CLint at 0.5 μM in series [2] and in series [3] was below 100 µL/min/mg each time.
`O=C1c2c(-c3ccncc3)ccnc2CN1CCc1ccc2sccc2n1` [compound 472, 4-(4-Pyridyl)-6-(2-thieno[3,2-b]pyridin-5-ylethyl)-7H-pyrrolo[3,4-b]pyridin-5-one] showed a half-inhibitory concentration (IC50) in series [1] below 0.1 µM. Moreover, the microsomal CLint at 0.5 μM in series [2] and in series [3] was 100 to 220 µL/min/mg throughout.
For the compound `O=C1c2c(-c3cscn3)ccnc2CN1CCc1nc2ccccc2s1` [compound 436, 6-[2-(1,3-Benzothiazol-2-yl)ethyl]-4-thiazol-4-yl-7H-pyrrolo[3,4-b]pyridin-5-one], in series [1], the IC50 fell in the range of 0.2 to 0.5 µM. For the same compound, the intrinsic clearance (microsomal CLint) at 0.5 μM in series [2] and in series [3] was below 100 µL/min/mg in each case.
With `O=C1c2c(-c3cncnc3)ccnc2CN1CCc1nc2ccccc2s1` [compound 544, 6-[2-(1,3-Benzothiazol-2-yl)ethyl]-4-pyrimidin-5-yl-7H-pyrrolo[3,4-b]pyridin-5-one], the IC50 in series [1] was in the range of 0.1 to 0.2 µM. Also, the microsomal CLint at 0.5 μM in series [2] and in series [3] was below 100 µL/min/mg in each case.
`O=C1c2c(-c3ccncc3)ccnc2CN1CCc1cn2cc(F)ccc2n1` [compound 494, 6-[2-(6-Fluoroimidazo[1,2-a]pyridin-2-yl)ethyl]-4-(4-pyridyl)-7H-pyrrolo[3,4-b]pyridin-5-one trifluoroacetate]: the IC50 in series [1] was below 0.1 µM. For the same compound, the microsomal CLint at 0.5 μM in series [2] and in series [3] was below 100 µL/min/mg throughout.
In series [1], `CCc1ccn2cc(CCN3Cc4nccc(N5CCOCC5)c4C3=O)nc2c1` [compound 555, 6-[2-(7-Ethylimidazo[1,2-a]pyridin-2-yl)ethyl]-4-morpholino-7H-pyrrolo[3,4-b]pyridin-5-one] displayed an IC50 below 0.1 µM. Moreover, the microsomal CLint at 0.5 μM in series [2] was 100 to 220 µL/min/mg; in series [3] it was below 100 µL/min/mg.
In series [1], `COc1ccc(-c2ccnn2C)c2c1C(=O)N(CCc1nc3ccccc3s1)C2` [compound 399, 2-[2-(1,3-Benzothiazol-2-yl)ethyl]-7-methoxy-4-(2-methylpyrazol-3-yl)isoindolin-1-one] yielded a concentration for half-maximal inhibition (IC50) below 0.1 µM. Further, the microsomal CLint at 0.5 μM in series [2] is below 100 µL/min/mg; in series [3], 100 to 220 µL/min/mg.
The matching figures for `O=C1c2c(-c3ccncc3)ccnc2CN1CCc1ccc2ncccc2n1` [compound 512, 6-[2-(1,5-Naphthyridin-2-yl)ethyl]-4-(4-pyridyl)-7H-pyrrolo[3,4-b]pyridin-5-one]: below 0.1 µM, below 100 µL/min/mg and below 100 µL/min/mg.
In series [1], `O=C1c2c(cncc2-c2ccncc2)CN1CCc1ccc2ccccc2n1` [Example 2, 7-Pyridin-4-yl-2-(2-quinolin-2-yl-ethyl)-2,3-dihydro-pyrrolo[3,4-c]pyridin-1-one] showed an IC50 below 0.1 µM. Moreover, the microsomal CLint at 0.5 μM in series [2] and in series [3] was 100 to 220 µL/min/mg each time.
`O=C1c2c(-c3cn[nH]c3)ccnc2CN1CCc1cn2ccccc2n1` [Example 365, 6-(2-Imidazo[1,2-a]pyridin-2-yl-ethyl)-4-(1H-pyrazol-4-yl)-6,7-dihydro-pyrrolo[3,4-b]pyridin-5-one]: in series [1], the 50% inhibitory concentration (IC50) was below 0.1 µM. Moreover, the results for the intrinsic metabolic clearance (microsomal CLint) at 0.5 μM in series [2] and in series [3] were below 100 µL/min/mg and 100 to 220 µL/min/mg, respectively.
In series [1], `Cn1nccc1-c1cccc2c1CN(CCc1ccc3ccccc3n1)C2=O` [Example 202, 4-(2-Methyl-2H-pyrazol-3-yl)-2-(2-quinolin-2-yl-ethyl)-2,3-dihydro-isoindol-1-one trifluoroacetate] came in with an IC50 below 0.1 µM. Further, the microsomal CLint at 0.5 μM in series [2] is 100 to 220 µL/min/mg; in series [3], above 220 µL/min/mg.
In turn, `Cc1ccc2c(c1)nc(CCN1Cc3cccc(N4CCOCC4)c3C1=O)n2C` [Example 306, 2-[2-(1,5-Dimethyl-1H-benzoimidazol-2-yl)-ethyl]-7-morpholin-4-yl-2,3-dihydro-isoindol-1-one trifluoroacetate] yielded an IC50 in series [1] below 0.1 µM. Moreover, the intrinsic clearance (microsomal CLint) at 0.5 μM is 100 to 220 µL/min/mg in series [2] and below 100 µL/min/mg in series [3].
The matching figures for `O=C1c2cccc(-c3cc[nH]n3)c2CN1CCc1cn2ccccc2n1` [Example 314, 2-(2-Imidazo[1,2-a]pyridin-2-yl-ethyl)-4-(1H-pyrazol-3-yl)-2,3-dihydro-isoindol-1-one trifluoroacetate]: below 0.1 µM, below 100 µL/min/mg and below 100 µL/min/mg.
For `O=C1c2c(cccc2-c2ccc3nc[nH]c3c2)CN1CCc1ccc2ccccc2n1` [Example 11, 7-(3H-Benzoimidazol-5-yl)-2-(2-quinolin-2-yl-ethyl)-2,3-dihydro-isoindol-1-one trifluoroacetate], the IC50 in series [1] is below 0.1 µM. For the same compound, the microsomal CLint at 0.5 μM in series [2] and in series [3] was below 100 µL/min/mg each time.
`Cn1c(CCN2Cc3cccc(-c4ccncc4)c3C2=O)nc2c(F)cccc21` [Example 300, 2-[2-(4-Fluoro-1-methyl-1H-benzoimidazol-2-yl)-ethyl]-7-pyridin-4-yl-2,3-dihydro-isoindol-1-one trifluoroacetate] came in with an IC50 in series [1] below 0.1 µM. Moreover, the figures for the microsomal CLint at 0.5 μM in series [2] and in series [3] were above 220 µL/min/mg and 100 to 220 µL/min/mg, respectively.
`COc1ccc(-c2cccnc2)c2c1C(=O)N(CCc1cn3ccccc3n1)C2` [compound 456, 2-(2-Imidazo[1,2-a]pyridin-2-yl-ethyl)-7-methoxy-4-pyridin-3-yl-2,3-dihydro-isoindol-1-one trifluoroacetate] gave an IC50 in series [1] below 0.1 µM. For the same compound, the microsomal CLint at 0.5 μM was below 100 µL/min/mg in series [2] and 100 to 220 µL/min/mg in series [3].
The matching figures for `COc1ccc(-c2ccnn2C)c2c1CN(CCc1cn3ccccc3n1)C2=O` [Example 373, 2-(2-Imidazo[1,2-a]pyridin-2-yl-ethyl)-4-methoxy-7-(2-methyl-2H-pyrazol-3-yl)-2,3-dihydro-isoindol-1-one]: below 0.1 µM, below 100 µL/min/mg and below 100 µL/min/mg.
